Measured values as given in patent publication US20230143604A1, “QW DOSING OF GIP RECEPTOR AGONIST PEPTIDE COMPOUNDS AND USES THEREOF” (TAKEDA PHARMACEUTICAL COMPANY LIMITED, priority 2020, published 2023).
Starred links: 1 amine or outer side, 2 acyl side, 3 side chain; linkers in the order of their positions; H or OH if unused. Non-standard residues stand in square brackets, D forms with d. Residues, ends and D or L forms follow the SMILES beside them. Groups on a side chain read outwards from the residue. *: point of attachment. C18 diacid = O=C(O)CCCCCCCCCCCCCCCCC(=O)*; C17 diacid = O=C(O)CCCCCCCCCCCCCCCC(=O)*; γGlu = O=C(O)[C@H](CCC(=O)[*:2])N[*:1]; NMeY = CN[C@@H](Cc1ccc(O)cc1)C(=O)O; AEEA = NCCOCCOCC(=O)O; Aib = CC(C)(N)C(=O)O

Assay: physchem
In short: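 3 mg of peptide treated with 100 μL portions of 200 mM phosphate buffer pH 7.4, sonicating/vortexing up to 1 min, with further buffer added until fully dissolved. Solubility then quantified by HPLC.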

SMILES	solubility (pH 7.4)	solubility (pH 7.4, aqueous buffer)	solubility (pH 7.4, aqueous buffer, pH 7.4 Phosphate Buffer - Solubility, 200 mM Phosphate buffer pH 7.4)	solubility (pH 7.4, solubility in phosphate buffer at pH 7.4, 200 mM phosphate buffer pH 7.4)
CC[C@H](C)[C@H](NC(=O)[C@H](Cc1ccccc1)NC(=O)[C@@H](NC(=O)CNC(=O)[C@H](CCC(=O)O)NC(=O)C(C)(C)NC(=O)[C@H](Cc1ccc(O)cc1)NC)[C@@H](C)O)C(=O)N[C@@H](CO)C(=O)N[C@@H](CC(=O)O)C(=O)N[C@@H](Cc1ccc(O)cc1)C(=O)N[C@@H](CO)C(=O)N[C@H](C(=O)NC(C)(C)C(=O)N[C@@H](CC(C)C)C(=O)N[C@@H](CC(=O)O)C(=O)N[C@@H](CCCNC(=N)N)C(=O)NC(C)(C)C(=O)N[C@@H](C)C(=O)N[C@@H](CCC(N)=O)C(=O)NC(C)(C)C(=O)N[C@@H](CCCCNC(=O)COCCOCCNC(=O)COCCOCCNC(=O)CC[C@H](NC(=O)CC[C@H](NC(=O)CCCCCCCCCCCCCCCCC(=O)O)C(=O)O)C(=O)O)C(=O)N[C@@H](Cc1ccccc1)C(=O)N[C@H](C(=O)N[C@@H](CCC(=O)O)C(=O)N[C@@H](Cc1c[nH]c2ccccc12)C(=O)N[C@@H](CC(C)C)C(=O)N[C@@H](CC(C)C)C(=O)N[C@@H](C)C(=O)N[C@@H](CCC(N)=O)C(=O)N[C@@H](CCCCN)C(=O)NCC(=O)O)C(C)C)[C@@H](C)CC [Compound 110] (H-[NMeY][Aib]EGTFISDYSI[Aib]LDR[Aib]AQ[Aib]K([AEEA-AEEA-γGlu-γGlu-C18 diacid])FVEWLLAQKG-OH)	≥ 15 mg/mL	≥ 60 mg/mL	–	–
CC[C@H](C)[C@H](NC(=O)[C@H](CO)NC(=O)[C@H](Cc1ccc(O)cc1)NC(=O)[C@H](CC(=O)O)NC(=O)[C@H](CO)NC(=O)[C@@H](NC(=O)[C@H](Cc1ccccc1)NC(=O)[C@@H](NC(=O)CNC(=O)[C@H](CCC(=O)O)NC(=O)C(C)(C)NC(=O)[C@H](Cc1ccc(O)cc1)NC)[C@@H](C)O)[C@@H](C)CC)C(=O)N[C@@H](C)C(=O)N[C@@H](CC(C)C)C(=O)N[C@@H](CC(=O)O)C(=O)N[C@@H](CCCNC(=N)N)C(=O)N[C@@H](CCCCNC(=O)COCCOCCNC(=O)COCCOCCNC(=O)CC[C@H](NC(=O)CCCCCCCCCCCCCCCCC(=O)O)C(=O)O)C(=O)N[C@@H](C)C(=O)N[C@@H](CCC(N)=O)C(=O)NC(C)(C)C(=O)N[C@@H](CC(=O)O)C(=O)N[C@@H](Cc1ccccc1)C(=O)N[C@H](C(=O)N[C@@H](CC(N)=O)C(=O)N[C@@H](Cc1c[nH]c2ccccc12)C(=O)N[C@@H](CC(C)C)C(=O)N[C@@H](CC(C)C)C(=O)N[C@@H](C)C(=O)N[C@@H](CCC(N)=O)C(=O)N[C@@H](CCCNC(=N)N)C(=O)N1CCC[C@H]1C(=O)N[C@@H](CO)C(=O)N[C@@H](CO)C(=O)NCC(=O)N[C@@H](C)C(=O)N1CCC[C@H]1C(=O)N1CCC[C@H]1C(=O)N1CCC[C@H]1C(=O)N[C@@H](CO)C(N)=O)C(C)C [Compound 23] (H-[NMeY][Aib]EGTFISDYSIALDRK([AEEA-AEEA-γGlu-C18 diacid])AQ[Aib]DFVNWLLAQRPSSGAPPPS-NH2)	–	–	≥ 30 mg/mL	≥ 15 mg/mL
CC[C@H](C)[C@H](NC(=O)[C@H](CO)NC(=O)[C@H](Cc1ccc(O)cc1)NC(=O)[C@H](CC(=O)O)NC(=O)[C@H](CO)NC(=O)[C@@H](NC(=O)[C@H](Cc1ccccc1)NC(=O)[C@@H](NC(=O)CNC(=O)[C@H](CCC(=O)O)NC(=O)C(C)(C)NC(=O)[C@H](Cc1ccc(O)cc1)NC)[C@@H](C)O)[C@@H](C)CC)C(=O)N[C@@H](C)C(=O)N[C@@H](CC(C)C)C(=O)N[C@@H](CC(=O)O)C(=O)N[C@@H](CCCNC(=N)N)C(=O)N[C@H](C(=O)N[C@@H](CCCCNC(=O)COCCOCCNC(=O)COCCOCCNC(=O)CC[C@H](NC(=O)CC[C@H](NC(=O)CCCCCCCCCCCCCCCCC(=O)O)C(=O)O)C(=O)O)C(=O)N[C@@H](CCC(N)=O)C(=O)N[C@@H](CCC(N)=O)C(=O)N[C@@H](CC(=O)O)C(=O)N[C@@H](Cc1ccccc1)C(=O)N[C@H](C(=O)N[C@@H](CC(N)=O)C(=O)N[C@@H](Cc1c[nH]c2ccccc12)C(=O)N[C@@H](CC(C)C)C(=O)N[C@@H](CC(C)C)C(=O)N[C@@H](C)C(=O)N[C@@H](CCC(N)=O)C(=O)N[C@@H](CCCNC(=N)N)C(=O)N1CCC[C@H]1C(=O)N[C@@H](CO)C(=O)N[C@@H](CO)C(=O)NCC(=O)O)C(C)C)[C@@H](C)CC [Compound 287] (H-[NMeY][Aib]EGTFISDYSIALDRIK([AEEA-AEEA-γGlu-γGlu-C18 diacid])QQDFVNWLLAQRPSSG-OH)	–	< 6 mg/mL	–	–
CC[C@H](C)[C@H](NC(=O)[C@H](CCCCN)NC(=O)[C@H](CC(=O)O)NC(=O)[C@H](CC(C)C)NC(=O)[C@H](C)NC(=O)[C@@H](NC(=O)[C@H](CO)NC(=O)[C@H](Cc1ccc(O)cc1)NC(=O)[C@H](CC(=O)O)NC(=O)[C@H](CO)NC(=O)[C@@H](NC(=O)[C@H](Cc1ccccc1)NC(=O)[C@@H](NC(=O)CNC(=O)[C@H](CCC(=O)O)NC(=O)C(C)(C)NC(=O)[C@@H](N)Cc1ccc(O)cc1)[C@@H](C)O)[C@@H](C)CC)[C@@H](C)CC)C(=O)N[C@@H](C)C(=O)N[C@@H](CCC(N)=O)C(=O)NC(C)(C)C(=O)N[C@@H](CCCCNC(=O)COCCOCCNC(=O)COCCOCCNC(=O)CC[C@H](NC(=O)CC[C@H](NC(=O)CCCCCCCCCCCCCCCCC(=O)O)C(=O)O)C(=O)O)C(=O)N[C@@H](Cc1ccccc1)C(=O)N[C@H](C(=O)N[C@@H](CCC(=O)O)C(=O)N[C@@H](Cc1c[nH]c2ccccc12)C(=O)N[C@@H](CC(C)C)C(=O)N[C@@H](CC(C)C)C(=O)N[C@@H](C)C(=O)N[C@@H](CCC(N)=O)C(=O)N[C@@H](CCCNC(=N)N)C(=O)NCC(=O)O)C(C)C [Compound 153] (H-Y[Aib]EGTFISDYSIALDKIAQ[Aib]K([AEEA-AEEA-γGlu-γGlu-C18 diacid])FVEWLLAQRG-OH)	≥ 15 mg/mL	≥ 30 mg/mL	–	–
CC[C@H](C)[C@H](NC(=O)[C@H](CCCCN)NC(=O)[C@H](CC(=O)O)NC(=O)[C@H](CC(C)C)NC(=O)C(C)(C)NC(=O)[C@@H](NC(=O)[C@H](CO)NC(=O)[C@H](Cc1ccc(O)cc1)NC(=O)[C@H](CC(=O)O)NC(=O)[C@H](CO)NC(=O)[C@@H](NC(=O)[C@H](Cc1ccccc1)NC(=O)[C@@H](NC(=O)CNC(=O)[C@H](CCC(=O)O)NC(=O)C(C)(C)NC(=O)[C@@H](N)Cc1ccc(O)cc1)[C@@H](C)O)[C@@H](C)CC)[C@@H](C)CC)C(=O)N[C@@H](C)C(=O)N[C@@H](CCC(N)=O)C(=O)N[C@@H](CCC(N)=O)C(=O)N[C@@H](CCCCNC(=O)COCCOCCNC(=O)COCCOCCNC(=O)CC[C@H](NC(=O)CC[C@H](NC(=O)CCCCCCCCCCCCCCCC(=O)O)C(=O)O)C(=O)O)C(=O)N[C@@H](Cc1ccccc1)C(=O)N[C@H](C(=O)N[C@@H](CCC(=O)O)C(=O)N[C@@H](Cc1c[nH]c2ccccc12)C(=O)N[C@@H](CC(C)C)C(=O)N[C@@H](CC(C)C)C(=O)N[C@@H](C)C(=O)N[C@@H](CCC(N)=O)C(=O)N[C@@H](CCCNC(=N)N)C(=O)NCC(=O)O)C(C)C [Compound 129] (H-Y[Aib]EGTFISDYSI[Aib]LDKIAQQK([AEEA-AEEA-γGlu-γGlu-C17 diacid])FVEWLLAQRG-OH)	≥ 15 mg/mL	≥ 30 mg/mL	–	–
